Experiment [1] relates to TICs (Ovarian 2393A). As to the kind of experiment: Ovarian tumor-initiating cell growth inhibition (Alamar Blue). The experiment is classed as cell-based. The following applies: 144 h; Ovarian 2393A TICs, 6 days; read-out: Tumor Initiating Cell GI50 Range Ovarain 2393A. For orientation: The colour change of resazurin is a common sign of viable cells or microbes.
From the text: Materials and Methods: Non-tissue or tissue cultured treated T-75 flask and 96-well plates were purchased from VWR. Vitamin B-27 supplement, MEM NEAA (minimum essential medium non essential amino acids), sodium pyruvate, L-glutamine, N2 supplement, penicillin-streptomycin and fungizone/amphotericin B were obtained from Invitrogen. Lipid mixture, heparin and EGF were purchased from Sigma; bFGF from BD Biosciences. Tumor Initiating Cells (TICs) from colon were routinely maintained using non-tissue cultured treated T-75 flasks in DMEM:F12 medium containing 0.2×B-27 supplement, 4 ug/ml heparin, 1×MEM NEAA, 1× sodium pyruvate, 1 mM glutamine, 10 pg/ul bFGF, 20 pg/ul EGF, 1×N2 supplement, lipid mixture, penicillin-streptomycin and fungizone/amphotericin B. Ovarian TICs were routinely maintained using tissue cultured treated T-75 flasks in DMEM:F12 medium containing 1×B-27 supplement, 4 ug/ml heparin, 20 pg/ul bFGF, 20 pg/ul EGF and penicillin-streptomycin.
Assay Protocol: Compounds described herein were dissolved in DMSO and further diluted in cell culture medium for GI50 determination. Colon TICs were trypsinized and seeded into non-tissue cultured treated 96-well plates with 4,000 cells/well. After 24 h, compound was added into the cell culture at different concentrations, and the final concentration of DMSO was adjusted to 0.1%. Cells were then cultured at 37° C. for 9 days. Ovarian TICs were trypsinized and seeded into tissue cultured treated 96-well plates with 1,000 cells/well. After 24 h, compound was added into the cell culture at different concentrations, and the final concentration of DMSO was adjusted to 0.1%. Cells were then cultured at 37° C. for 6 days. Cell viability was assessed by Alamar Blue assay: 10 ul of Alamar Blue was added into each well. After 4 hours incubation at 37° C., fluorescence was recorded at excitation 544 and emission 590. GI50 (Growth inhibition) was calculated using GraphPad Prism 4.0 software.
Experiment [2] concerns the target T1, human TTK (Homo sapiens, UniProt P33981).
T1 construct: amino terminal GST fusion of full length human TTK; purchased Invitrogen
T1 sequence (P33981 1-857): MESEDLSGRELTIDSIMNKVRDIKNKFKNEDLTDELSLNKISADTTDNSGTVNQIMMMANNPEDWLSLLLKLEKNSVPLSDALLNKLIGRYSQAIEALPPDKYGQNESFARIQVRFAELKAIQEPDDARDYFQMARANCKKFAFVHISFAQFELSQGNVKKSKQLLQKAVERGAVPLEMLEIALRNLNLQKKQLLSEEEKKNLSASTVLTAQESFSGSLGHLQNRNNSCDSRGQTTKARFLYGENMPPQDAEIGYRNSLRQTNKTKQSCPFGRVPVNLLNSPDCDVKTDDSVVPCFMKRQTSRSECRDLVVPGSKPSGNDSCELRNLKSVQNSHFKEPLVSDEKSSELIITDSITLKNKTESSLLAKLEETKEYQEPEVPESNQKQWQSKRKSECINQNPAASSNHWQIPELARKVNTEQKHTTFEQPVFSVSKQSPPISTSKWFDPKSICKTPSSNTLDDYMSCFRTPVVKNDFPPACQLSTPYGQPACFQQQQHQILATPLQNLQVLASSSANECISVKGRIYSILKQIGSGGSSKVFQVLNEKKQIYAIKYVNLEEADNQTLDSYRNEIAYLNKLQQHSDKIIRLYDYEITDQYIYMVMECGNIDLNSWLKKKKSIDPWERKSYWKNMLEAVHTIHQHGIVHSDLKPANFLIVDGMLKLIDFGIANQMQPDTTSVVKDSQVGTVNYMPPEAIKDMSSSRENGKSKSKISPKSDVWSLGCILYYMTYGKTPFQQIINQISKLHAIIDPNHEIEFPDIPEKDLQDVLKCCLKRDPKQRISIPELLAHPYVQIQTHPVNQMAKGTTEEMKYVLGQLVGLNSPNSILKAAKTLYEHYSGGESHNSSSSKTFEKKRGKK
Put plainly: TTK inhibition assay (indirect ELISA). The experiment is classed as biochemical. The following applies: read-out: TTK IC50 Range. For orientation: In an ELISA, binding on a coated surface is turned into a signal by an enzyme label.

In experiment [3] the test system is ovarian cancer cells (PA-1). Put plainly: Cancer cell line growth inhibition (SRB assay). The experiment is classed as cell-based. The following applies: Homo sapiens, PA-1; read-out: Cancer Cell Line GI50 Range PA-1. A general note: The SRB assay estimates cell density from bound dye.
Method: Breast cancer cells (MDA-MB-231), colon cancer cells (HCT116) and ovarian cancer cells (PA-1) were seeded (1000 to 4000 in 80 μl per well depending on the cell growth rate) into 96 well plates 24 hours before compound overlay. Compounds were prepared as 10 mM stock solutions in 100% DMSO which were diluted with DMEM (Dulbecco's Modified Eagle's Medium) cell growth Medium (Invitrogen, Burlington, ON, Canada) containing 10% FBS (Fetal Bovine Serum) to concentrations ranging from 50 nM to 250 μM. Aliquots (20 μl) from each concentration were overlaid to 80 μl of the pre-seeded cells in the 96 well plates to make final concentrations of 10 nM to 50 μM. The cells were cultured for 5 days before the Sulforhodamine B assay (SRB) was performed to determine the compound's cell growth inhibition activity.
Sulforhodamine B (purchased from Sigma, Oakville, ON, Canada) is a water-soluble dye that binds to the basic amino acids of the cellular proteins. Thus, colorimetric measurement of the bound dye provides an estimate of the total protein mass that is related to the cell number. the cells are fixed in situ by gently aspirating off the culture media and adding 50 μl ice cold 10% Trichloroacetic Acid (TCA) per well and incubate at 4° C. for 30-60 min. The plates are washed with H2O five times and allowed to air dry for 5 min. Addition of 50 μl 0.4% (w/v) SRB solution in 1% (v/v) acetic acid to each well and incubation for 30 min at RT completes the staining reaction. Following staining, plates are washed four times with 1% acetic acid to remove unbound dye and then allowed to air dry for 5 min. The stain is solubilized with 100 μl of 10 mM Tris pH 10.5 per well. Absorbance is read at 570 nm.
The percentage (%) of relative growth inhibition was calculated by comparing to DMSO treated only cells (100%). GI50's were determined for compounds with cytotoxic activity. The GI50 was calculated using GraphPad PRISM software (GraphPad Software, Inc., San Diego, Calif., USA).
Experiment [4] relates to Breast cancer cells. As to the kind of experiment: Cancer cell line growth inhibition (SRB assay). The experiment is classed as cell-based. The following applies: Homo sapiens; MDA-MB-468; read-out: Cancer Cell Line GI50 Range MDA-MB-468.
Experiment [5] has as its system TICs (Colon 12). As to the kind of experiment: Colon tumor-initiating cell growth inhibition (Alamar Blue). The experiment is classed as cell-based. The following applies: 216 h; Colon 12 TICs, 9 days; read-out: Tumor Initiating Cell GI50 Range Colon 12.
The target in experiment [6] is T2, Aurora-B (Homo sapiens, UniProt Q96GD4).
T2 construct: purchased Millipore Corporation
As to the kind of experiment: Panel of 270 human kinases (Millipore). In kind it is biochemical. As for the experimental part:
(§1) The inhibitory activity of selected compounds of the invention (A335, A405, A410, A261, A300 and A363) was evaluated against a panel of 270 different human kinase enzymes by Millipore Corporation. The % Inhibition was determined by the formula: % Inhibition=100×(1−(experimental value−background value)/(high activity control−background value)).

Experiment [7] addresses T3, cKit (V560G) (Homo sapiens, UniProt P10721, V560G).
T3 construct: purchased Millipore Corporation
Put plainly: Panel of 270 human kinases (Millipore). The experiment is classed as biochemical. As for the experimental part: as §1

The target of experiment [8] is T4, MELK (Homo sapiens, UniProt Q14680).
T4 construct: purchased Millipore Corporation
Put plainly: Panel of 270 human kinases (Millipore). The experiment is classed as biochemical. As for the experimental part:
as §1

Experiment [9] concerns the target T5, Met(Y1248C) (Homo sapiens, UniProt P08581, Y1230C).
T5 construct: purchased Millipore Corporation
Put plainly: Panel of 270 human kinases (Millipore). In kind it is biochemical. The method, then: as §1

Experiment [10] concerns the target T6, JNK3 (Homo sapiens, UniProt P53779).
T6 construct: purchased Millipore Corporation
As to the kind of experiment: Panel of 270 human kinases (Millipore). The experiment is classed as biochemical. As for the experimental part:
as §1

Experiment [11] deals with T7, MUSK (Homo sapiens, UniProt O15146).
T7 construct: purchased Millipore Corporation
T7 sequence (O15146 24-869): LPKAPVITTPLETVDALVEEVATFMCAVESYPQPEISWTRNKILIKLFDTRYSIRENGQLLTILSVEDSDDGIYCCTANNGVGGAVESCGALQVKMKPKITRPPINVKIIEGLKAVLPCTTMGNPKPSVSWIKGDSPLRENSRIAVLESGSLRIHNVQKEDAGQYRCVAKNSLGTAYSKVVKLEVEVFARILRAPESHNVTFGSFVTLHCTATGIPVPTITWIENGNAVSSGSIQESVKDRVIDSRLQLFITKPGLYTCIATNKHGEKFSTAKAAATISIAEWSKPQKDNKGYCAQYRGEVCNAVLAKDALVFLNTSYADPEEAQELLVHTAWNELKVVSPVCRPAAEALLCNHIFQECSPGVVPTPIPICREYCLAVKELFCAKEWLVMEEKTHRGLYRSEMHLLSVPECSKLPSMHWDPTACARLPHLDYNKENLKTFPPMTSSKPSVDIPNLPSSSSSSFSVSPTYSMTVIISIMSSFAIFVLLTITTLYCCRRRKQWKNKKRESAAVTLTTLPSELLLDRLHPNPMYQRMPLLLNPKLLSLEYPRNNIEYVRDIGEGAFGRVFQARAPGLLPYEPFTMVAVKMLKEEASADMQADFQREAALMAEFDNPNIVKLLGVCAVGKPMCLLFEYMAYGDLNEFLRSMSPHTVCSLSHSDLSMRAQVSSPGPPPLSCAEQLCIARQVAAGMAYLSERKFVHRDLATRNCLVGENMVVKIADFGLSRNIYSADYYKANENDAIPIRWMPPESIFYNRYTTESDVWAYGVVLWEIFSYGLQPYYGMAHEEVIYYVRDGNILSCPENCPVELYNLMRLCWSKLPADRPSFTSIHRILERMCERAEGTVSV
Put plainly: Panel of 270 human kinases (Millipore). In kind it is biochemical. The method, then: as §1

In experiment [12] the target is T8, ALK (Homo sapiens, UniProt Q9UM73).
T8 construct: purchased Millipore Corporation
Put plainly: Panel of 270 human kinases (Millipore). In kind it is biochemical. As for the experimental part: as §1

Experiment [13] has as its target T9, MAPK2 (Homo sapiens, UniProt P28482).
T9 construct: purchased Millipore Corporation
Put plainly: Panel of 270 human kinases (Millipore). The experiment is classed as biochemical. As for the experimental part: as §1

Experiment [14] has as its system colon cancer cells (HCT116). Put plainly: Cancer cell line growth inhibition (SRB assay). In kind it is cell-based. The following applies: Homo sapiens, HCT-116; read-out: Cancer Cell Line GI50 Range HCT116.

This passage reports GI50, IC50 and inhibition results from patent US9580390B2, “Indazole compounds as kinase inhibitors and method of treating cancer with same” (University Health Network, priority 2011, dated 2017).

T3 sequence (P10721 26-976 V560G): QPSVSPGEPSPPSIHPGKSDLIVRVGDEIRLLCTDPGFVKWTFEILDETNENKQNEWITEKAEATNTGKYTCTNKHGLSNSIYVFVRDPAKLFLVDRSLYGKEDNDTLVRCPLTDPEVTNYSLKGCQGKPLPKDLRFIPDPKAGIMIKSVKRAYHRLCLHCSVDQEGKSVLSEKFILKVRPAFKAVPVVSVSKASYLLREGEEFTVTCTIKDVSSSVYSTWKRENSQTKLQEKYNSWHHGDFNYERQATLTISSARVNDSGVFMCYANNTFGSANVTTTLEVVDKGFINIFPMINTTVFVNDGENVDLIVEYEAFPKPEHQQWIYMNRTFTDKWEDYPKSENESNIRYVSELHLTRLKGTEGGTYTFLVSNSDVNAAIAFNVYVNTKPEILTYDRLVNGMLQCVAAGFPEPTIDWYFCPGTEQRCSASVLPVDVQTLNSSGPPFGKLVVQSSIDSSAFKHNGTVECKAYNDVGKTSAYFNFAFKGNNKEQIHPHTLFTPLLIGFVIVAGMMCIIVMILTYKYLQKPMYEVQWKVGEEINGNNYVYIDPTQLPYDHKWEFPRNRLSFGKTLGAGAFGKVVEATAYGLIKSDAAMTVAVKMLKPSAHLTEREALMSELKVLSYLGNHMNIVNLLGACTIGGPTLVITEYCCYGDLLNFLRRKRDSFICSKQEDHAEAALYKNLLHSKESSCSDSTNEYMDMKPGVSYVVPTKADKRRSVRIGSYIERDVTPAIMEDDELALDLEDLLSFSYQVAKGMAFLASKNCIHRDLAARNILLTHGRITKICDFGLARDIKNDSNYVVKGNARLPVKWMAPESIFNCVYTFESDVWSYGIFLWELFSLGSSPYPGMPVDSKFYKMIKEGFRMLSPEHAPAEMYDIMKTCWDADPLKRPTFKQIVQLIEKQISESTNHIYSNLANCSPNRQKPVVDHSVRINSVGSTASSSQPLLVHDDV
T6 sequence (P53779 whole entry): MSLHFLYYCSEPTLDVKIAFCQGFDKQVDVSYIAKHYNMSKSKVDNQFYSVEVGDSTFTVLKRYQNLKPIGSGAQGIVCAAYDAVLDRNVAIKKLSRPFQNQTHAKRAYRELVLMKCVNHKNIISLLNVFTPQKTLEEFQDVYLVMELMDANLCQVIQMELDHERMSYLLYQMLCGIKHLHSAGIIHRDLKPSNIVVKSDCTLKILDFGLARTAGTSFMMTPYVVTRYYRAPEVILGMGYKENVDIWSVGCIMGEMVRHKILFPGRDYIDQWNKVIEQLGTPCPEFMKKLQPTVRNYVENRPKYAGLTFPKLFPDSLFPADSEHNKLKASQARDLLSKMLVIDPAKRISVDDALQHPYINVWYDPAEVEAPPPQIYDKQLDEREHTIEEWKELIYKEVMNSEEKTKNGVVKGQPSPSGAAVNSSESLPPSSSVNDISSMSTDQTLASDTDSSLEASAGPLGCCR
T4 sequence (Q14680 whole entry): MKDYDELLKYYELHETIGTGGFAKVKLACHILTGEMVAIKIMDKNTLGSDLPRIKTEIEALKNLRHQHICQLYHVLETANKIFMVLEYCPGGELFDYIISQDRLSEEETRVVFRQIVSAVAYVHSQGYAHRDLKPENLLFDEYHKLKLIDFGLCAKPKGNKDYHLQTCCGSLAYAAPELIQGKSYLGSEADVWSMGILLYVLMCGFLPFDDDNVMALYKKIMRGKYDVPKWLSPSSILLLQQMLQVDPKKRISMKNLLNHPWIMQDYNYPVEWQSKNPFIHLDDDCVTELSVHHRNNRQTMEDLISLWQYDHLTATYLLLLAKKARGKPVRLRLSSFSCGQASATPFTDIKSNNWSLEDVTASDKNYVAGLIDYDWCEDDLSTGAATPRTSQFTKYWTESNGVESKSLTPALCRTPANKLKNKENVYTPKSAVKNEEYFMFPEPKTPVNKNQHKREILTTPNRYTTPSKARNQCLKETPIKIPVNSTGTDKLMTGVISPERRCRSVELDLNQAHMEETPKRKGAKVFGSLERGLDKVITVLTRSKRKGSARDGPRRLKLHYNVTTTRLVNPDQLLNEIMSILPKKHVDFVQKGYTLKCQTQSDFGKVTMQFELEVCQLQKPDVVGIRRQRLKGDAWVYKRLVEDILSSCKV
T9 sequence (P28482 whole entry): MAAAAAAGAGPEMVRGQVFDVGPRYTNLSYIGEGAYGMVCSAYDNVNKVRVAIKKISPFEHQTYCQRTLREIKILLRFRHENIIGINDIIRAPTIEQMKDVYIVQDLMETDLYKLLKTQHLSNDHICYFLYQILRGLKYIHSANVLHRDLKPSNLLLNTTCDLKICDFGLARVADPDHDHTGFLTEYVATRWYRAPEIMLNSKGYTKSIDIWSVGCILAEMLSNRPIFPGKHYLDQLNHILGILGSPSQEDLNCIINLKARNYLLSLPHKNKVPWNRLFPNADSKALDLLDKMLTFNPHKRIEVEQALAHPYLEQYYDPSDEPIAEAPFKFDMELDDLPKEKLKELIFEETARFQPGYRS
T5 sequence (P08581 25-1408 isoform P08581-2 Y1248C limits assumed): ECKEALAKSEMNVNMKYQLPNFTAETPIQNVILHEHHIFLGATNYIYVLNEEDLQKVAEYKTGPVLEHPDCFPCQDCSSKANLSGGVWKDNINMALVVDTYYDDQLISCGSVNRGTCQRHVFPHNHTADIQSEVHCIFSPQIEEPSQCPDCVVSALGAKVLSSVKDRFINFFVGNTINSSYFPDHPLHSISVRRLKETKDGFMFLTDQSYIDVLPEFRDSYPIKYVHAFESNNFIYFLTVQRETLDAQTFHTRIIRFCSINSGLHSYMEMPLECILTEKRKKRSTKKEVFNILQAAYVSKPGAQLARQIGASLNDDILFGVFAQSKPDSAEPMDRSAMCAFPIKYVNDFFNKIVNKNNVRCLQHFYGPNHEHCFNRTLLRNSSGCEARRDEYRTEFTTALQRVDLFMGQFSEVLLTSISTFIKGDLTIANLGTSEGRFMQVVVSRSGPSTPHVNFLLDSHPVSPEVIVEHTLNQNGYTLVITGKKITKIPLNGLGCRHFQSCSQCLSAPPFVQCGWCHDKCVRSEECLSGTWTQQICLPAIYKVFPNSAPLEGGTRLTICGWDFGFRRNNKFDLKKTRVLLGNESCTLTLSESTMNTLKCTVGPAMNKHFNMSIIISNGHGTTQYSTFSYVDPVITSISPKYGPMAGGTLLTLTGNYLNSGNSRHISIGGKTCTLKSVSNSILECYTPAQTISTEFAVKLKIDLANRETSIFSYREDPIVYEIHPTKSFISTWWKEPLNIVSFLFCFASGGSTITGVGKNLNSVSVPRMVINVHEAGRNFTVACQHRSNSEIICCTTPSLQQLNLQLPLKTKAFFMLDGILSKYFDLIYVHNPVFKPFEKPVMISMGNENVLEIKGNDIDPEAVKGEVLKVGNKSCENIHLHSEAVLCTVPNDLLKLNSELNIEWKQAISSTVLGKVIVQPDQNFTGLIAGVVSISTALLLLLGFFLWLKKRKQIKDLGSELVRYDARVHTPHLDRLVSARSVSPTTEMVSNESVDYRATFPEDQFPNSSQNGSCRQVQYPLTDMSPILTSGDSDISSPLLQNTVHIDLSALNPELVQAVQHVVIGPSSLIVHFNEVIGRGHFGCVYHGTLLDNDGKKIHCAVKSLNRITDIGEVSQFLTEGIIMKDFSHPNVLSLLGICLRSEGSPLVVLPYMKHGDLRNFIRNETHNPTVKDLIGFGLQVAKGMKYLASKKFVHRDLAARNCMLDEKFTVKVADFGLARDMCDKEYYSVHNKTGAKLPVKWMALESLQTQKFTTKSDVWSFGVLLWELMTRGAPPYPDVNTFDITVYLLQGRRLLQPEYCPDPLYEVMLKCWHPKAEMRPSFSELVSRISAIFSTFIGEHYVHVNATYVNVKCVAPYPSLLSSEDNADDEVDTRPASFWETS
T2 sequence (Q96GD4 whole entry): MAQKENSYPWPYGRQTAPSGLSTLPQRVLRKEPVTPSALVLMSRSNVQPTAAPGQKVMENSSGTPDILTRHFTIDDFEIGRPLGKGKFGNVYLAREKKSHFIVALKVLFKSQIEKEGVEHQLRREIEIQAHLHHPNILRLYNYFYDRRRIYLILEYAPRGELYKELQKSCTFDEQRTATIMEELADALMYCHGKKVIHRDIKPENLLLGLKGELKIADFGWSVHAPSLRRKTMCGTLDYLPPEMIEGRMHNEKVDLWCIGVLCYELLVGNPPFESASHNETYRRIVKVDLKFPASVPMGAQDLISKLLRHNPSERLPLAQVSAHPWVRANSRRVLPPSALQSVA

For `CC1=CC2(CCN(C)CC2)Oc2ccc(-c3n[nH]c4ccc(C(=O)N[C@H](c5ccccn5)C5CCCC5)cc34)cc21` [Example A261, (S)-N-(cyclopentyl(pyridin-2-yl)methyl)-3-(1′,4-dimethylspiro[chromene-2,4′-piperidin]-6-yl)-1H-indazole-5-carboxamide], the GI50 (as a rule, the concentration giving 50% growth inhibition) is less than 100 nM in experiment [1]; less than 100 nM in experiment [3]; less than 100 nM in experiment [4]; 100 to 500 nM in experiment [5]; less than 100 nM in experiment [14]. In addition, in experiment [2], the IC50 (in general, the concentration at which inhibition is half-maximal) is less than 100 nM. Moreover, the inhibition (as a rule, the share of the control response that was lost under treatment) at 1 µM in experiment [6] came out at 49%; in experiment [7], 90%; in experiment [8], 93%; in [9] it was 8%; in experiment [10], 59%; in experiment [11] it was 86%. For the same compound, the figures for the inhibition at 1 µM in [12] and in experiment [13] were 86% and 8%, respectively.
